# Patent publication US6392032B1, “Heavily fluorinated sugar analogs” (Board of Regents University of Nebraska-Lincoln, priority 1996, dated 2002)
# Experiment: Qualitative solubility in solvents
# Assay type: physicochemical
smiles,measurement,setting,value
"OCC12OC(O)C1C(F)(F)C(F)(F)C2(F)F (centres unmarked) [Compound 6, 1-Hydroxy-5-(5′-hydroxymethyl)-2,2,3,3,4,4-hexafluorooxane]",Qualitative solubility,in CHCl3 and other solvents of lower polarity,insoluble
same,Qualitative solubility,"in acetone, EtOAc, ether, and water",soluble
